Reference: US20030073117A1, “Novel protein and gene encoding the protein” (Daiichi Pharmaceutical Co., Ltd., priority 2000, published 2003)

How the values were obtained:
[1] = molecular target: T1, SAC1 (Mus musculus, UniProt Q9EPK8); assay: Single channel analysis (patch clamp) of SAC1 expression cells under negative pressure; format: cell-based
T1 construct: the region containing the full length was amplified by PCR using primer set (A13st1 and mA13end1); expressed in transfected cells; host or cells: CHO cells, transient co-transfection of SAC1 in pCMV-SPORT with pEGFP-N1 as a separate marker plasmid
Method: (§1) The plasmid (pEGFP-N1; Clonetech Co.) expressing a green fluorescent protein was used as a marker for transfection. For the transient expression of protein, CHO cells were cultured in a HamF-12 culture medium (Gibco-BRL Co.) supplemented with 10% fetal bovine serum, 100 U/ml penicillin, and 100 μg/ml streptomycin. On the day before transformation, CHO cells (10^5 cells) were seeded to a 35 mm dish in which a cover slip coated with rat tail collagen was placed. […] The electrophysiological test was started after 24 hours and the fluorescence measurement was carried out 48 hours after the transfection.
Patch clamp recordings were carried out according to the method described in a previous paper (Suzuki, M., Sato, J., Kutsuwada, K., Ooki, G. and Imai, M. (1999) J. Biol. Chem. 274, 6330-5). GFP positive cells were visualized by a fluorescence measurement with an emission of 490 nm (CAM 2000 system; Jusco Co., Ltd.). […] In single channel analysis, the current was recorded with an EPC-7 patch clamp amplifier (List-Electronic Co., Ltd.) and stored on a DAT recorder (DAT-200; Sony Corp.) at 10 KHz. […] The data were analyzed using Igor ver. […] To analyze the open probability in the presence of GdCl3, single channel amplitude was set for those without reagent and the mean open probability (Po) was determined by the records during 10 seconds. […]

[2] = molecular target: T1, SAC1; assay: Fluorescence measurement (fura-2) of SAC1 expression cells under touch stress; format: cell-based; conditions: SAC1 expression CHO cells (GFP positive), touched by glass pipette, added Gd^3+; no added Gd^3+ gave 12.8 ± 1.4, control cells 4.5 ± 3.8
Method: as §1, with “placed. On the next day, SAC1 plasmid (1 μg) in PCMV-SPORT (Gibco-BRL Co.) and pEGFP-N1 (1 μg) were added per one transfection to a mixture of serum-free medium (97 μl) and FuGENE6 (Roche, 3 μl) which had been incubated for 5 minutes at room temperature.” for “placed.”
For 2-3 hours prior to start of the test, the transformed cells were incubated with 10 μM fura-2AM (Dojin Co.) dissolved in a serum-free culture medium. GFP fluorescence at 480 nm and fura-2 fluorescence at 360/380 nm were visualized by a manual exchange of dichroic Olympus system mirrors (Merlin Co.). Images for the fluorescence at 480 nm and fluorescence at 360/380 nm were obtained every two seconds. The fluorescence intensity of the objective area was calculated for analysis. […]

T1 sequence (Q9EPK8 whole entry): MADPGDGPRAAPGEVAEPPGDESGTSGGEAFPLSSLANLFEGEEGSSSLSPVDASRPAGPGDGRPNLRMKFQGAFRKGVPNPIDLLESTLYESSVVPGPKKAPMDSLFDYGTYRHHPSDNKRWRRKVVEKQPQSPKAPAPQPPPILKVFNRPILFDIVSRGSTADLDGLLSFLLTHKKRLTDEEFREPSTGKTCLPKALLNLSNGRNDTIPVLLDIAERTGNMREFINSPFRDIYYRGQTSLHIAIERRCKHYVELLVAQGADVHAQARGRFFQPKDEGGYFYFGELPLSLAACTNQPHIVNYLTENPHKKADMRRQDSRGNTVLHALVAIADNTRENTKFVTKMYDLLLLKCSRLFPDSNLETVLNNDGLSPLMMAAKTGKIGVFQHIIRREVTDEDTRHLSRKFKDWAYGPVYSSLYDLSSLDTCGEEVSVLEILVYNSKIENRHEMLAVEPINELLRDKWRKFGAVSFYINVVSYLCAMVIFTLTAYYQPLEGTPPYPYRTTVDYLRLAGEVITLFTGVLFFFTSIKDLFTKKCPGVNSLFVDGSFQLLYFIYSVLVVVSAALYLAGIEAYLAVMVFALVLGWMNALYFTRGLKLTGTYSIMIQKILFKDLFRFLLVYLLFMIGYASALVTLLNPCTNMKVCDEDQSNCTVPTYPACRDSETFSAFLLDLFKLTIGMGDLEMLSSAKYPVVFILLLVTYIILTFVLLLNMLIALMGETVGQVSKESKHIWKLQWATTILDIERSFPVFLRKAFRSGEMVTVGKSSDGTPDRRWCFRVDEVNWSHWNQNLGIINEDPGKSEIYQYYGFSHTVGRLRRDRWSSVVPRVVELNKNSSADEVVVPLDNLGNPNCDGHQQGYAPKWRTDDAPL

- response (mean open probability Po) to negative pressure ([1]; 0.5 μM GdCl3 added to the pipette, cell-attached, FIG. 3C): not affected
- effect on single channel activated by negative pressure ([1]; transformed cells that express SAC1): blocked
- change of the fura-2 fluorescence ratio (360 nm/380 nm) on mechanical stimulus [2]: 4.8 ± 1.4 (10)
SMILES: [Cl][Gd]([Cl])[Cl] [Gd^3+, GdCl3]
